Experimental findings from article PMC6844396, “Design, synthesis and biological evaluation of novel 1H-1,2,4-triazole, benzothiazole and indazole-based derivatives as potent FGFR1 inhibitors viafragment-based virtual screening” (Journal of Enzyme Inhibition and Medicinal Chemistry, 2019) are described below.

One data set concerns SNU-16 cell. The data set is described as follows: Cell proliferation assay (CCK-8 or MTT), SNU-16. Type of data set: cell-based, Human. The settings on record: for IC50: SNU-16 is FGFR2-amplified cell type, 72 h. The protocol: Human gastric cancer cell line SNU-16 was purchased from American Type Culture Collection (ATCC, Manssas, VA, USA). All the cell lines were routinely maintained in complete medium according to the suppliers’ recommendations.
Cells were seeded in 96-well tissue culture plates. On the day when seeding, the cells were exposed to various concentrations of compounds and further cultured for 72 h at 37 °C. Finally, cell proliferation was determined using Cell Counting Kit (CCK-8) or the thiazolyl blue tetrazolium bromide (MTT, from Sigma-Aldrich, St. Louis, MO, USA) assay. The IC50 values were calculated by concentration–response curve fitting using a SoftMax pro-based four-parameter method.

The next data set addresses FGFR1 (Homo sapiens, UniProt P11362). The data set is described as follows: ELISA kinase assay, FGFR1. Type of data set: biochemical. The settings on record: ELISA; average values from two separate experiments. The protocol:
Elisa kinase assay. The effects of the indicated compounds on the activities of receptor tyrosine kinases were determined using enzyme-linked immunosorbent assays (ELISAs) with purified recombinant proteins. Briefly, 20 μg/mL poly (Glu,Tyr)4:1 (Sigma, St Louis, MO, USA) was pre-coated in 96-well plates as a substrate. A 50 μL aliquot of 10 μmol/L ATP solution diluted in kinase reaction buffer (50 mmol/L HEPES [pH 7.4], 50 mmol/L MgCl2, 0.5 mmol/L MnCl2, 0.2 mmol/L Na3VO4, and 1 mmol/L DTT) was added to each well; 1 μL of different compounds with indicated concentration diluted in 1% DMSO (v/v) (Sigma, St Louis, MO, USA) were then added to each reaction well. DMSO (1%, v/v) was used as the negative control. The kinase reaction was initiated by the addition of purified tyrosine kinase proteins (FGFR1, FGFR2, FGFR3, FGFR4, ALK, Bcr-Abl, EPH-A2, Flt-1, RET, c-Src, IGF1R, c-Met, EGFR, ErbB2) diluted in 49 μL of kinase reaction buffer solution. After incubation for 60 min at 37 °C, the plate was washed three times with phosphate-buffered saline (PBS) containing 0.1% Tween 20 (T-PBS). Anti-phosphotyrosine (PY99) antibody (100 μL; 1:500, diluted in 5 mg/mL BSA T-PBS) was then added. After a 30 min incubation at 37 °C, the plate was washed three times, and 100 μL horseradish peroxidase-conjugated goat anti-mouse IgG (1:2000, diluted in 5 mg/mL BSA T-PBS) was added. The plate was then incubated at 37 °C for 30 min and washed 3 times. A 100 μL aliquot of a solution containing 0.03% H2O2 and 2 mg/mL o-phenylenediamine in 0.1 mol/l citrate buffer (pH 5.5) was added. The reaction was terminated by the addition of 50 μL of 2 mol/l H2SO4 as the colour changed, and the plate was analysed using a multi-well spectrophotometer (SpectraMAX 190, Molecular Devices, Sunnyvale, CA, USA) at 490 nm. The inhibition rate (%) was calculated using the following equation: [1-(A490/A490 control)] × 100%. The IC50 values were calculated from the inhibition curves in two separate experiments.

For orientation: IC50 means the concentration that inhibits the measured activity by half. Lower therefore signals greater potency. By melting point is commonly meant the temperature of the solid-liquid transition.

Chain of FGFR1 (P11362 22-822): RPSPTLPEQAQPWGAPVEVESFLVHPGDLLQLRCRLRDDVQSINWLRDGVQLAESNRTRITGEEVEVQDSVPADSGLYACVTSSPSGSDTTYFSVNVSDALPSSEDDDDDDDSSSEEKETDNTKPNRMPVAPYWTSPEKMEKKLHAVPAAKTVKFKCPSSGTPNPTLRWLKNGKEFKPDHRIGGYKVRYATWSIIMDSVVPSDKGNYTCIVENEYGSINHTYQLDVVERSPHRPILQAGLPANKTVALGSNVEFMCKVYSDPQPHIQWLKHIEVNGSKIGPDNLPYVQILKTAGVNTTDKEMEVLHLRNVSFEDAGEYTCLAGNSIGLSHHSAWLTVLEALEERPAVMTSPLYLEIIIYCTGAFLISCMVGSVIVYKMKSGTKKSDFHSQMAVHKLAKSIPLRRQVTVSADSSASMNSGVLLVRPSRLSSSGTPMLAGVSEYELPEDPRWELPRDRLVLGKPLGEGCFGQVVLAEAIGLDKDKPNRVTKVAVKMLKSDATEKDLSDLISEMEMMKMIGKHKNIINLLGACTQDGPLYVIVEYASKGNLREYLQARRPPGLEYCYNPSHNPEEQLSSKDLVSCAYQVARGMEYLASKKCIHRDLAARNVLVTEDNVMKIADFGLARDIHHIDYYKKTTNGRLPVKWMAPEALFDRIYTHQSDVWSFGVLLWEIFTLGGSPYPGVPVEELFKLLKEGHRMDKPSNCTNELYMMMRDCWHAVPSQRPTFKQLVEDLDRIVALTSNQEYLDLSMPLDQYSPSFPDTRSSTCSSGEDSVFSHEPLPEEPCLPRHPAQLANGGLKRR

As to `COc1cc(OC)cc(-c2ccc3c(NC(=O)c4ccc(N5C[C@@H](C)N[C@@H](C)C5)cc4)n[nH]c3c2)c1` [9a, N-(6–(3,5-dimethoxyphenyl)-1H-indazol-3-yl)-4-((3R,5S)-3,5-dimethylpiperazin-1-yl)benzamide], the IC50 in the data set with SNU-16 cell (Homo sapiens, Table 1) turned out to be 1200 nM; at FGFR1, 30.6 nM.

Molecule `COc1cccc(-c2ccc3c(NC(=O)c4ccc(N5C[C@@H](C)N[C@@H](C)C5)cc4)n[nH]c3c2)c1` [9b, 4-((3R,5S)-3,5-dimethylpiperazin-1-yl)-N-(6–(3-methoxyphenyl)-1H-indazol-3-yl)benzamide] came in with a melting point of 224.8 to 227.4 °C. Moreover, in the data set with SNU-16 cell (Homo sapiens, Table 1), inhibition was half-maximal at 1050 nM (IC50). On FGFR1, this molecule registered a 50% inhibitory concentration (IC50) of 20.7 nM.

`COc1cccc(-c2ccc3c(NC(=O)c4ccc(N5CCN(C)CC5)cc4)n[nH]c3c2)c1` [9c, N-(6–(3-methoxyphenyl)-1H-indazol-3-yl)-4–(4-methylpiperazin-1-yl)benzamide] showed a melting point of 224.8 to 227.4 °C. For the same molecule, in the data set with SNU-16 cell (Homo sapiens, Table 1), the midpoint of inhibition, the IC50, lay at 843 nM. This molecule had a 50% inhibitory concentration (IC50) at FGFR1 of 28.2 nM.

In the case of `CCN1CCN(c2ccc(C(=O)Nc3n[nH]c4cc(-c5cccc(OC)c5)ccc34)cc2)CC1` [9d, 4–(4-ethylpiperazin-1-yl)-N-(6–(3-methoxyphenyl)-1H-indazol-3-yl)benzamide], the IC50 in the data set on SNU-16 cell (Homo sapiens, Table 1) stood at 786 nM; against FGFR1, 15 nM.

In the case of `CCOc1cccc(-c2ccc3c(NC(=O)c4ccc(N5CCN(CC)CC5)cc4)n[nH]c3c2)c1` [9e, N-(6–(3-ethoxyphenyl)-1H-indazol-3-yl)-4–(4-ethylpiperazin-1-yl)benzamide], the melting point fell in the range of 223.6 to 226 °C. This molecule also displayed a concentration for half-maximal inhibition (IC50) with SNU-16 cell (Homo sapiens, Table 2) of 1790 nM. For the same molecule, 13.2 nM corresponded to half-maximal inhibition against FGFR1 (IC50).

Molecule `CCN1CCN(c2ccc(C(=O)Nc3n[nH]c4cc(-c5cccc(OC(C)C)c5)ccc34)cc2)CC1` [9f, 4–(4-ethylpiperazin-1-yl)-N-(6–(3-isopropoxyphenyl)-1H-indazol-3-yl)benzamide] gave a melting point of 227.9 to 231.7 °C. In addition, in the data set on SNU-16 cell (Homo sapiens, Table 2), the IC50 is 1500 nM. Besides, on FGFR1, the IC50 stood at 9.8 nM.

Consider `CCC(C)Oc1cccc(-c2ccc3c(NC(=O)c4ccc(N5CCN(CC)CC5)cc4)n[nH]c3c2)c1` (stereo not drawn) [9g, N-(6–(3-(sec-butoxy)phenyl)-1H-indazol-3-yl)-4–(4-ethylpiperazin-1-yl)benzamide], for which the IC50 is > 5000 nM in the data set on SNU-16 cell (Homo sapiens, Table 2) and > 1000 nM against FGFR1.

With `CCN1CCN(c2ccc(C(=O)Nc3n[nH]c4cc(-c5cccc(C(=O)OC)c5)ccc34)cc2)CC1` [9h, methyl 3–(3-(4–(4-ethylpiperazin-1-yl)benzamido)-1H-indazol-6-yl)benzoate], the melting point fell in the range of 228.7 to 233.4 °C. For the same molecule, in the data set with SNU-16 cell (Homo sapiens, Table 2), the IC50 turned out to be 757 nM. Besides, the IC50 against FGFR1 was found to be 77.7 nM.

In turn, `CCN1CCN(c2ccc(C(=O)Nc3n[nH]c4cc(-c5ccc(C)c(OC)c5)ccc34)cc2)CC1` [9i, 4–(4-ethylpiperazin-1-yl)-N-(6–(3-methoxy-4-methylphenyl)-1H-indazol-3-yl) benzamide] yielded a melting point of 227.3 to 231.2 °C. The IC50 in the data set on SNU-16 cell (Homo sapiens, Table 2) was > 5000 nM. Moreover, the half-inhibitory concentration (IC50) against FGFR1 was > 1000 nM.

For `CCN1CCN(c2ccc(C(=O)Nc3n[nH]c4cc(-c5cc(C(F)(F)F)cc(C(F)(F)F)c5)ccc34)cc2)CC1` [9j, N-(6–(3,5-bis(trifluoromethyl)phenyl)-1H-indazol-3-yl)-4–(4-ethylpiperazin-1-yl)benzamide], the IC50 in the data set on SNU-16 cell (Homo sapiens, Table 2) is > 5000 nM; against FGFR1, > 1000 nM.

In turn, `CCN1CCN(c2ccc(C(=O)Nc3n[nH]c4cc(-c5cc(Cl)cc(Cl)c5)ccc34)cc2)CC1` [9k, N-(6–(3,5-dichlorophenyl)-1H-indazol-3-yl)-4–(4-ethylpiperazin-1-yl)benzamide] returned a melting point of 226.4 to 228.7 °C. The 50% inhibitory concentration (IC50) with SNU-16 cell (Homo sapiens, Table 2) stood at 1200 nM. The IC50 against FGFR1 is 67.2 nM.

Consider `CCN1CCN(c2ccc(C(=O)Nc3n[nH]c4cc(-c5cc(Cl)ccc5Cl)ccc34)cc2)CC1` [9l, N-(6–(2,5-dichlorophenyl)-1H-indazol-3-yl)-4–(4-ethylpiperazin-1-yl)benzamide], for which the melting point was in the range of 231.5 to 234.6 °C. The same molecule gave an IC50 in the data set with SNU-16 cell (Homo sapiens, Table 2) of 780 nM. Moreover, on FGFR1, the half-inhibitory concentration (IC50) is 50.6 nM.

For `CCN1CCN(c2ccc(C(=O)Nc3n[nH]c4cc(-c5cccc(Cl)c5Cl)ccc34)cc2)CC1` [9m, N-(6–(2,3-dichlorophenyl)-1H-indazol-3-yl)-4–(4-ethylpiperazin-1-yl)benzamide], the melting point lay within 220.1 to 222.4 °C. For the same molecule, in the data set on SNU-16 cell (Homo sapiens, Table 2), the IC50 was 1180 nM. The molecule also registered a concentration for half-maximal inhibition (IC50) against FGFR1 of 44.8 nM.

As to `CCN1CCN(c2ccc(C(=O)Nc3n[nH]c4cc(-c5ccc(Cl)c(Cl)c5)ccc34)cc2)CC1` [9n, N-(6–(3,4-dichlorophenyl)-1H-indazol-3-yl)-4–(4-ethylpiperazin-1-yl)benzamide], the melting point is 224.9 to 228 °C. The IC50 with SNU-16 cell (Homo sapiens, Table 2) is > 5000 nM. Moreover, on FGFR1, the IC50 was > 1000 nM.

For `CCN1CCN(c2ccc(C(=O)Nc3n[nH]c4cc(-c5cc(F)cc(OC)c5)ccc34)cc2)CC1` [9o, 4–(4-ethylpiperazin-1-yl)-N-(6–(3-fluoro-5-methoxyphenyl)-1H-indazol-3-yl)benzamide], the melting point was 225.5 to 227 °C. Besides, the “enhancement of the cellular inhibition” value in the data set with SNU-16 cell (9o vs 9d, SNU-16) was determined as 1.4 fold. Half-maximal inhibition in the data set with SNU-16 cell (Homo sapiens, Table 2) (IC50) was put at 572 nM. Besides, half-maximal inhibition on FGFR1 (IC50) required 5.5 nM.

As to `CCN1CCN(c2ccc(C(=O)Nc3n[nH]c4cc(-c5ccc(C(F)(F)F)cc5Cl)ccc34)cc2)CC1` [9p, N-(6–(2-chloro-4-(trifluoromethyl)phenyl)-1H-indazol-3-yl)-4–(4-ethylpiperazin-1-yl)benzamide], the melting point lay within 227.9 to 232 °C. Also, the IC50 with SNU-16 cell (Homo sapiens, Table 2) is > 5000 nM. Also, on FGFR1, the IC50 was > 1000 nM.

In turn, `CCN1CCN(c2ccc(C(=O)Nc3n[nH]c4cc(-c5c(C)cccc5C)ccc34)cc2)CC1` [9q, N-(6–(2,6-dimethylphenyl)-1H-indazol-3-yl)-4–(4-ethylpiperazin-1-yl)benzamide] registered a melting point of 235.7 to 239.2 °C. This molecule also gave an IC50 in the data set on SNU-16 cell (Homo sapiens, Table 2) of 856 nM. The molecule also registered an IC50 at FGFR1 of 41.7 nM.

`CCN1CCN(c2ccc(C(=O)Nc3n[nH]c4cc(-c5ccccc5OC(F)(F)F)ccc34)cc2)CC1` [9r, 4–(4-ethylpiperazin-1-yl)-N-(6–(2-(trifluoromethoxy)phenyl)-1H-indazol-3-yl)benzamide] came in with a melting point of 230.9 to 233.5 °C. For the same molecule, in the data set with SNU-16 cell (Homo sapiens, Table 2), the IC50 was > 5000 nM. For the same molecule, the concentration for half-maximal inhibition (IC50) against FGFR1 was > 1000 nM.

Turning to `CCN1CCN(c2ccc(C(=O)Nc3n[nH]c4cc(-c5ccc(C#N)cc5)ccc34)cc2)CC1` [9s, N-(6–(4-cyanophenyl)-1H-indazol-3-yl)-4–(4-ethylpiperazin-1-yl)benzamide], the melting point lay within 226.4 to 230 °C. Besides, the half-maximal inhibitory concentration (IC50) in the data set with SNU-16 cell (Homo sapiens, Table 2) was > 5000 nM. Also, the IC50 against FGFR1 is > 1000 nM.

`CCN1CCN(c2ccc(C(=O)Nc3n[nH]c4cc(-c5ccn(C)n5)ccc34)cc2)CC1` [9t, 4–(4-ethylpiperazin-1-yl)-N-(6–(1-methyl-1H-pyrazol-3-yl)-1H-indazol-3-yl) benzamide] registered a melting point of 221.6 to 224.2 °C. For the same molecule, in the data set with SNU-16 cell (Homo sapiens, Table 2), the IC50 was > 5000 nM. Further, on FGFR1, the half-maximal inhibitory concentration (IC50) was > 1000 nM.

`COc1cc(F)cc(-c2ccc3c(NC(=O)c4ccc(N5C[C@@H](C)N[C@@H](C)C5)cc4)n[nH]c3c2)c1` [9v, 4-((3R,5S)-3,5-dimethylpiperazin-1-yl)-N-(6–(3-fluoro-5-methoxyphenyl)-1H-indazol-3-yl)benzamide] yielded a melting point of 229.6 to 233.4 °C. Moreover, the IC50 with SNU-16 cell (Homo sapiens, Table 3) worked out at 437 nM. This molecule also came in with an IC50 at FGFR1 of 13.2 nM.

Regarding AZD4547 [reference compound], in the data set with SNU-16 cell (Table 1), half-maximal inhibition (IC50) required 6.1 nM.

With “N-(5–(3-methoxyphenethyl)-1H-1,2,4-triazol-3-yl)-4–(4-methylpiperazin-1-yl) benzamide [18b]”, the IC50 in the data set with SNU-16 cell (Table 1) is > 5000 nM; against FGFR1, > 1000 nM.
